Values quoted from earlier work, collected in patent publication US20100286187A1, “METHOD OF PREDICTING SURVIVAL OF A NON-SMALL-CELL LUNG CANCER PATIENT TO A CHEMOTHERAPEUTIC TREATMENT” (PANGAEA BIOTECH S.A., priority 2006, published 2010).

Tests used:
[1] = system: non-small cell lung cancer (NSCLC) patients; settings: single agent, previously untreated NSCLC patients
[2] = system: non-small cell lung cancer (NSCLC); settings: randomized study, per arm

Compound: CC(=O)O[C@@]12CO[C@@H]1C[C@H](O)[C@@]1(C)C(=O)[C@H](O)C3=C(C)[C@@H](OC(=O)[C@H](O)[C@@H](NC(=O)OC(C)(C)C)c4ccccc4)C[C@@](O)([C@@H](OC(=O)c4ccccc4)[C@H]21)C3(C)C [Docetaxel]
- Response rates [1]: 21-38%

Compound: paclitaxel/carboplatin
- Median survival [2]: 8.2 months
